Experimental data: patent publication US11241402B2, “Methods of treating liver fibrosis by administering 3-bromopyruvate” (The Johns Hopkins University, priority 2015, dated 2022)
“Also recorded” adds a separate entry of the source.

How the values were obtained:
activated-LX-2 cells = assay: Determination of nontoxic maximum tolerated dose (cell viability, Trypan-blue exclusion or intracellular ATP); assay type: cell-based, human; conditions: maximum dose allowing more than 50% survival; 5-50 μM tested for 24, 48 and 72 hours
Protocol: To determine the nonlethal, maximum tolerated dose (MTD) of 3-BrPA for activated-LX-2 cells, the cell viability was assessed using either Trypan-blue exclusion or quantification of intracellular ATP level. The later was performed using the Cell-Titer Glo Assay kit (Promega Corp., Madison, Wis.) and the FLUOstar Omega plate reader (BMG Labtech, UK). In brief, cells plated in 96-well flatbottomed opaque plates were treated with different concentrations of 3-BrPA (5 μM, 10 μM, 25 μM and 50 μM) for 24, 48 and 72 hours followed by the quantification of intracellular ATP. The maximum dose of 3-BrPA that allowed more than 50% survival (a concentration <IC50) was selected for further experiments.

activated LX-2 cells [1] = assay: Metronomic therapy of activated-LX-2 cells: morphology / phenotype; assay type: cell-based, human; conditions: for change in morphology / phenotype of aLX-2 cells: monotherapy, metronomic: 3-BrPA 25 μM or AICAR 0.5 mM
Excerpt: LX-2, a human stellate cell line, was a gift of Dr. Scott L. Friedman from the Mount Sinai School of Medicine (New York, N.Y., USA). The LX-2 cells when cultured on plastic are active in fibrogenesis (Gaca et al., 2003), and these activated LX-2 cells were used in most experiments. De-activated (quiescent) LX-2 cells prepared by culturing the LX-2 cells on Matrigel (Gaca et al., 2003; Sohara et al., 2002; Troeger et al., 2012) were used as controls. The activated and de-activated LX-2 cells were then cultured in Dulbecco's Modified Eagle's Medium (DMEM) containing 10% FBS, 0.1% antibiotic (Penicillin-Streptomycin) and 0.1% Fungizone on plastic as described previously (Tang et al., 2003). Rat hepatic stellate cells were
(§1) To analyze the effect of 3-BrPA on activated-LX-2 cells, the principle of metronomic therapy, a repeated but low, nonlethal dose of 3-BrPA ([…]) was adopted. A known number of cells were plated in 6-well plates, 10 cm petri dishes or chamber slides as required and the culture media was replaced with fresh culture media containing the drug(s) on alternative days. The cells were treated for a period of 13 days for immunofluorescence studies and 6 days for all other studies including biochemical analysis. Monotherapy involved treating the cells with 3-BrPA alone or AICAR (0.5 mM) in DMEM with 2.5% FBS. The concentration of AICAR was chosen based on the prior reports (Lim et al., 2012). Combination therapy involved using half of the dose used for the monotherapy of AICAR and 3-BrPA.

[2] = system: human primary hepatocytes; assay: Morphology and cell viability of human primary hepatocytes at the metronomic dose; assay type: cell-based
Protocol: (§2) isolated and cultured as described previously (Anania et al., 1996). Human primary hepatocytes were obtained from Invitrogen and cultured in William's medium (without phenol red) along with plating and maintenance supplements.
as §1

activated LX-2 cells [3] = assay: Immunofluorescence / immunoblot of profibrogenic markers (α-SMA, CK-18); assay type: cell-based, human; conditions: aLX-2 cells
Protocol: as §1
LX-2 cells were grown in chamber slides in the same media used for culture. […]
For western blotting, control and treated cells were washed in PBS, lysed in RIPA lysis buffer (Sigma-Aldrich) with a protease inhibitor cocktail and a phosphatase inhibitor cocktails (both from Sigma-Aldrich) at 4° C. using a dounce homogenizer. […] The clear supernatants were collected and the protein concentrations were analyzed using a 2-D Quant protein assay Kit (GE Healthcare) as described (Ganapathy-Kanniappan et al., 2009a). […]

activated LX-2 cells [4] = assay: Gelatin zymography for MMP activity in conditioned medium, verified by immunoblot; assay type: cell-based, human; conditions: aLX-2 cells, zymogram and immunoblots
Protocol: as §1
The level of MMP activity in the conditioned medium of control and treated LX-2 cells and/or rat HSCs was quantified by gelatin zymography. In brief, upon the completion of drug treatment protocol, media from both control and treated cells were removed, cells were rinsed with PBS and replaced with serum-free DMEM media and cultured overnight at 37° C. prior to the collection of media containing secreted proteins for further analysis. […]

activated LX-2 cells [5] = assay: Collagen staining (trichrome) and collagen mRNA by qRT-PCR; assay type: cell-based, human; conditions: aLX-2 cells
Protocol: Gene expression analysis was performed by using qRT-PCR with a sequence detection system (ABI 7900HT; Applied Biosystems, Bedford, Mass., USA). The total RNA was extracted and the cDNA thus synthesized were subjected to qRT-PCR analysis using SYBR Green PCR Kit (Applied Biosystems) for genes associated with invasiveness and motility like Vimentin (VIM), Cadherin-12 (CDH12), Snail (SNAI1), Transgelin (TGN) (31-33) and TaqMan PCR Kit for Coll1α (Mm 00801666_g1). The primers used for respective gene amplification were synthesized by RealTimePrimers.com (Elkins Park, Pa., USA) or Life Technologies (Coll1α): […]
Tissue sections were deparaffinized in xylene followed by rehydration through graded series of alcohol followed by staining for collagen using Masson's Trichrome stain (Sigma Aldrich, St. Louis, Mo.) or Sirius Red stain (PolySciences. Inc Warrington, Pa.). For in vitro studies, the LX-2 cells were grown in chamber slides containing appropriate growth medium. They were fixed with 4% formaldehyde for 10 minutes, rapidly rehydrated with Phosphate-buffered saline (PBS), following which, the staining was performed.

[6] = system: rat hepatic stellate cells; assay: Fibrotic markers in rat hepatic stellate cells (confocal α-SMA, MMP-9 immunoblot); assay type: cell-based
Excerpt: as §2
The level of MMP activity in the conditioned medium of control and treated LX-2 cells and/or rat HSCs was quantified by gelatin zymography. In brief, upon the completion of drug treatment protocol, media from both control and treated cells were removed, cells were rinsed with PBS and replaced with serum-free DMEM media and cultured overnight at 37° C. prior to the collection of media containing secreted proteins for further analysis. The media thus collected were concentrated using a 3000 Da centrifugal filter (Amicon Inc., Pineville, N.C., USA) at 2500 rpm for 30 minutes at 4° C. and then stored at −80° C. until further analysis. Protein (˜10 μg) samples from the conditioned media of control and treated cells were subjected to zymography as described (Kunjithapatham et al., 2014). The MMP activity was visualized as clear bands. The identity of the MMP associated with zymogram signal (activity) was verified by immunoblot analysis.

activated LX-2 cells [7] = assay: Energy metabolism markers (immunofluorescence, immunoblot, lactate secretion); assay type: cell-based, human; conditions: aLX-2 cells
Protocol: as §1
LX-2 cells were grown in chamber slides in the same media used for culture. They were fixed with 4% formaldehyde for 10 minutes, rapidly rehydrated with Phosphate-buffered saline (PBS) and permeabilized with a 0.20% Triton X-100 solution in PBS for imaging of MCT-1, MCT-4 and ATPSE. The cells were incubated with primary antibodies in PBS for 1 hour at room temperature in a humidified chamber. They were then washed and incubated at room temperature with secondary antibody labeled with Texas Red
For western blotting, control and treated cells were washed in PBS, lysed in RIPA lysis buffer (Sigma-Aldrich) with a protease inhibitor cocktail and a phosphatase inhibitor cocktails (both from Sigma-Aldrich) at 4° C. using a dounce homogenizer. The lysates were centrifuged at 12,000×g for 15 min at 4° C. to remove any cell debris. The clear supernatants were collected and the protein concentrations were analyzed using a 2-D Quant protein assay Kit (GE Healthcare) as described (Ganapathy-Kanniappan et al., 2009a). In brief, protein samples were resolved on a 4-12% Bis-Tris gel by electrophoresis with MOPS buffer or via 12% Bis-Tris gel electrophoresis with MES running buffer (for low molecular weight targets) and blotted onto PVDF membranes (BioRad, Hercules, Calif., USA) followed by immunoblotting with specific antibodies. Immune complexes were visualized by ECL-detection kit (GE Health Care).

O=C(O)C(=O)CBr [3-BrPA, 3-bromopyruvate]
MTD (nonlethal, maximum tolerated dose) in aLX-2 cells (activated-LX-2 cells): 25 µM
stability of phenotypic changes after withdrawal of the drug (activated LX-2 cells [1]; aLX-2 cells, 6 days post-treatment): stable, even after withdrawal of the drug
change in morphology of aLX-2 cells in the presence of AICAR (activated LX-2 cells [1]; combination of 3-BrPA and AICAR, half of the monotherapy doses): promoted the changes even in the presence of AICAR
change in morphology / phenotype of aLX-2 cells (activated LX-2 cells [1]): induced changes in phenotype including an elongated, spindle-shaped morphology
sensitivity / cell viability / toxicity, human primary hepatocytes ([2]; 3-BrPA 25 μM, in vitro): not sensitive; also recorded: not toxic; also recorded: remained unaffected
morphological change of human primary hepatocytes ([2]; same metronomic dose (25 μM)): did not under go any morphological change
level of CK-18 (activated LX-2 cells [3]; immunofluorescence): prominent decrease
level of α-SMA (activated LX-2 cells [3]; immunofluorescence and immunoblot): reduced
secretion of MMPs (MMP-2, MMP-9) (activated LX-2 cells [4]): elevated
α1 (I) collagen mRNA (activated LX-2 cells [5]): decreased
collagen (trichrome staining) (activated LX-2 cells [5]; text says liver collagen): decreased
α-SMA in rat hepatic stellate cells ([6]; confocal microscopic images): decrease
secretion of MMP-9 in rat hepatic stellate cells ([6]; immunoblot): increase
expression level of lactate transporter MCT-4 (activated LX-2 cells [7]): increased
expression of ATPSE (F1-F0 ATPase) (activated LX-2 cells [7]): significantly downregulated
expression of MCT-1 (activated LX-2 cells [7]): unaffected
level of lactate secretion (activated LX-2 cells [7]): increased
expression level of lactate dehydrogenase (LDH) (activated LX-2 cells [7]; immunoblot): increased
toxicity to mouse hepatocytes (mouse hepatocytes): not toxic

NC(=O)c1ncn([C@@H]2O[C@H](CO)[C@@H](O)[C@H]2O)c1N [AICAR, reference compound]
change in morphology / phenotype of aLX-2 cells (activated LX-2 cells [1]): did not induce any change in morphology
